Reference: US7319021B2, “Cell lysis composition, methods of use, apparatus and kit” (Promega Corporation, priority 2002, dated 2008)
“And” between values parts separate entries of the source, which are not always exact repeats. Equal values may be shown once.

Tests used:
[1] = system: E. coli cells; assay: Optical density and visual turbidity of E. coli culture after treatment (Example 2); type: cell-based
Experimental: E. coli bacteria expressing His-tagged Renilla Luciferase were grown in Luria Broth [L Broth]+10 ng/ml tetracycline [Tet] [50 ml of media in a 250 ml flask] at 37° C. overnight in a shaking incubator rotating at 200 RPM. The E. coli strain was prepared by transforming E. coli with a vector expressing histidine-tagged Renilla luciferase. The vector was constructed by conventional methods. See Maniatis et al., “Molecular Cloning: A Laboratory Manual,” 2nd Edition, Cold Spring Harbor Laboratory, Cold Spring Harbor, N.Y. (1982). Following overnight culture the bacterial cells were diluted 1:100 into fresh L broth+Tet and grown to a density of 0.6 at 600 nm [OD 600 0.6] at 37C on the shaking incubator. Renilla expression was induced by addition of isopropyl-beta-D-thiogalactopyranoside (IPTG) from a 1M filter sterilized solution to a final concentration of 1 mM. The culture was grown for 4 additional hours at 37C on the shaking incubator before use. […]
900 ul of 20 mM Tris-HCl pH 7.3 and 100 ul of the corresponding solutions were added to each of 12 disposable plastic cuvettes. After the instrument background was set to zero with a 20 mM Tris-HCl pH 7.3 solution at an optical density of 600 nm (OD600), and the optical density of the solutions was measured.

[2] = system: E. coli cells; assay: Release of Renilla Luciferase from E. coli (Example 2); type: cell-based
Experimental: E. coli bacteria expressing His-tagged Renilla Luciferase were grown in Luria Broth [L Broth]+10 ng/ml tetracycline [Tet] [50 ml of media in a 250 ml flask] at 37° C. overnight in a shaking incubator rotating at 200 RPM. The E. coli strain was prepared by transforming E. coli with a vector expressing histidine-tagged Renilla luciferase. The vector was constructed by conventional methods. See Maniatis et al., “Molecular Cloning: A Laboratory Manual,” 2nd Edition, Cold Spring Harbor Laboratory, Cold Spring Harbor, N.Y. (1982). Following overnight culture the bacterial cells were diluted 1:100 into fresh L broth+Tet and grown to a density of 0.6 at 600 nm [OD 600 0.6] at 37C on the shaking incubator. Renilla expression was induced by addition of isopropyl-beta-D-thiogalactopyranoside (IPTG) from a 1M filter sterilized solution to a final concentration of 1 mM. The culture was grown for 4 additional hours at 37C on the shaking incubator before use.
One ml of the Renilla luciferase expressing E. coli culture was added to each of 12 tubes, labeled 1 through 12: tubes 1-3, no further addition; tubes 4-6, 10 ul of 10 mg/ml lysozyme; tubes […], 100 ul of CLR formulation A, and; tubes 10-12, 100 ul of CLR formulation A and 10 ul of 10 mg/ml lysozyme. […]

Substance: lysozyme: 10 mg/ml solution of lysozyme [Sigma L 6876] in 20 mM Tris-HCl buffer, pH 7.3; 10 ul per ml culture
- OD600 ([1]; 100 ul of treated culture in 900 ul 20 mM Tris-HCl pH 7.3, culture expressing His-tagged Renilla Luciferase): 0.3264 and 0.3261 and 0.3033
- level of turbidity, visual inspection ([1]; tubes inverted 10 times): very turbid
- Relative Light Units Resuspended Pellet Sample ([2]; 2 ul of pellet resuspended in 800 ul): 58.41 Relative Light Units and 60.99 Relative Light Units and 72.03 Relative Light Units
- Relative light Units, Supernatant Sample ([2]; 2 ul of supernatant): 0.053 Relative light Units and 0.074 Relative light Units and 0.048 Relative light Units
